{
  "source": "patent US11766470B2",
  "about": "“Manufacture, formulation and dosing of apraglutide” (VectivBio AG, priority 2020, dated 2023)",
  "key": {"[1]": {"system": "anti-apraglutide antibodies", "assay": "Anti-apraglutide antibodies ELISA in serum, Phase 2 SBS-IF trial (Example 5)", "format": "in vivo, human", "text": "Blood samples for analysis of plasma concentration of apraglutide and fasting plasma L-citrulline, a marker of enterocyte mass, were collected at baseline, during first and second treatment injection, four days after first treatment injection and at the end of treatment.\nA fully validated ELISA method was used for the detection of anti-apraglutide antibodies in serum, following a three-tiered assay approach. In the first tier, anti-apraglutide antibodies present in samples and controls bonded to apraglutide immobilized on a microtiter plate. The bound anti-apraglutide antibodies were then detected with protein A/G and protein L. A sample with a signal above the validated screening cut-point was considered potentially positive and was then tested in the second tier, the confirmatory assay. For this, samples were pre-treated with an excess of apraglutide prior to testing them in the assay described above. An inhibition of the signal equal to or greater than the validated confirmatory cut-point confirmed the presence of antibodies. Samples were then reported as anti-apraglutide antibody positive. Titers were then determined by serial dilution of all confirmed positive samples."}, "[2]": {"assay": "MCP-MOD dose-response analysis of citrulline (week 6) in healthy volunteers (Example 7)", "parameters": "species or system human", "conditions": "for MCP step, estimate of the difference: citrulline week 6", "text": "The MCP-MOD procedure was applied. This statistical methodology consisted of 2 steps: the multiple comparisons step and the modelling step. The first step of the procedure (MCP) is used to test for a significant dose response by assessing pre-specified candidate models. Once a dose response has been established, the second step (MOD) is used to estimate a dose-response curve and estimation of target doses of interest. Five candidate models were specified:\nLinear model with maximum effect for the 10 mg dose\nLog-linear model with maximum effect for the 10 mg dose\nDose that induces maximum effect (Emax) model with ED50 of 5 mg\nSigmoidal Emax model with ED50 of 1 mg and hill coefficient (HILL) of 2\nSigmoidal Emax model with ED50 of 5 mg and HILL of 5\nA subset of the citrulline data was made with the average pre-value and day 35 to 42=week 6 data. The coefficients were implemented in the mixed model analysis of variance with fixed factors treatment, time and treatment by time, random factor subject, and the average prevalue as covariate. The average pre-value was calculated from all pre-values after screening and before dosing.\nThe following contrasts are calculated within the model:\nFor all pharmacodynamic endpoints (citrulline, Bristol stool scale and weight), the pre-value has been used as covariate. The average pre-value was calculated from all pre-values after screening and before dosing, except for the Bristol stool scale, where the screening value was also used to calculate the average baseline. The average pre-value of citrulline was also used as covariate in the MCP-MOD, except in the Sigmoid Emax model. This was addressed by subtracting the pre-value times the slope of the linear model of the MCP part from the values of week 6."}, "[3]": {"system": "patients with SBS-IF or SBS-II", "conditions": "in vivo", "procedure": "Patients were treated with once weekly 5 mg apraglutide for four weeks. Apraglutide was provided as a freeze-dried powder for reconstitution in sterile water prior to injection, and treatments were administered as subcutaneous injections in the abdominal area. A 72-hour metabolic balance study was performed at baseline and at the end of the treatment period (starting one day after the fourth and last apraglutide injection). Each 72-hour metabolic balance study was performed during a five-day hospital admission. On the day of admission, patients were instructed to create a 24-hour drinking menu based on their habitual oral fluid intake. The drinking menu was to be followed during each balance study. On the second day of admission, just after the patients had urinated and emptied their stoma bags or defecated, the balance study was initiated. […] Daily PS and compliance to the predefined drinking menu was documented during admissions.\nFirst, second and fourth apraglutide injections were performed at the hospital. Safety assessments included observation for injection site reactions, vital signs, blood samples, electrocardiogram (ECG), urinalysis and body weight. They were performed at baseline, during each injection of the trial drug, four days after first injection, at the end of treatment and 4-6 weeks after last dosing at the end of the trial, as shown in Table 20. Liver enzymes were measured prior to each drug administration."}, "[4]": {"conditions": "human, in vivo"}},
  "note": "Where two headings read alike, the source gives them in different places. Square brackets hold non-standard residues; d marks the D form. Peptide text beside a SMILES is read from it. ξ: configuration not given here. Ile(3ξ) = CCC(C)[C@H](N)C(=O)O; Thr(3ξ) = CC(O)[C@H](N)C(=O)O; Nle = CCCC[C@H](N)C(=O)O",
  "data": [
    {"smiles": "CCCC[C@H](NC(=O)[C@H](CCC(=O)O)NC(=O)[C@H](CC(=O)O)NC(=O)[C@H](CO)NC(=O)[C@H](Cc1ccccc1)NC(=O)[C@H](CO)NC(=O)CNC(=O)[C@H](CC(=O)O)NC(=O)CNC(=O)[C@@H](N)Cc1c[nH]cn1)C(=O)N[C@H](Cc1ccccc1)C(=O)N[C@H](C(=O)N[C@H](C(=O)N[C@@H](CC(C)C)C(=O)N[C@@H](CC(=O)O)C(=O)N[C@@H](CC(C)C)C(=O)N[C@@H](CC(C)C)C(=O)N[C@@H](C)C(=O)N[C@@H](C)C(=O)N[C@@H](CCCNC(=N)N)C(=O)N[C@@H](CC(=O)O)C(=O)N[C@@H](Cc1ccccc1)C(=O)N[C@H](C(=O)N[C@@H](CC(N)=O)C(=O)N[C@@H](Cc1c[nH]c2ccccc12)C(=O)N[C@@H](CC(C)C)C(=O)N[C@H](C(=O)N[C@@H](CCC(N)=O)C(=O)N[C@H](C(=O)N[C@@H](CCCCN)C(=O)N[C@H](C(=O)N[C@H](C(=O)N[C@@H](CC(=O)O)C(N)=O)C(C)O)C(C)CC)C(C)O)C(C)CC)C(C)CC)C(C)CC)C(C)O", "note": "(stereo partly drawn) [apraglutide, L-histidyl-glycyl-L-aspartyl-glycyl-L-seryl-L-phenylalanyl-L-seryl-L-aspartyl-L-glutamyl-L-norleucyl-D-phenylalanyl-L-threonyl-Lisoleucyl-L-leucyl-L-aspartyl-L-leucyl-L-leucyl-L-alanyl-L-alanyl-L-arginyl-L-aspartyl-L-phenylalanyl-L-isoleucyl-L-asparaginyl-Ltryptophanyl-L-leucyl-L-isoleucyl-L-glutaminyl-L-threonyl-L-lysyl-L-isoleucyl-L-threonyl-Laspartic acid amide] (H-HGDGSFSDE[Nle][dF][Thr(3ξ)][Ile(3ξ)]LDLLAARDF[Ile(3ξ)]NWL[Ile(3ξ)]Q[Thr(3ξ)]K[Ile(3ξ)][Thr(3ξ)]D-NH2)", "values": [
      {"measurement": "Patients who developed anti-apraglutide antibodies", "setting": "[1]; during the trial", "result": "Three"},
      {"measurement": "Patients positive for anti-apraglutide antibodies", "setting": "[1]; end of 5 mg treatment period", "result": "Two"},
      {"measurement": "Patients positive for anti-apraglutide antibodies", "setting": "[1]; end of 10 mg treatment period", "result": "one"},
      {"measurement": "Effects of anti-apraglutide antibodies on PK profile, pharmacodynamic response, adverse events", "setting": "[1]; in vivo", "result": "No effects of anti-apraglutide antibodies were detected"},
      {"measurement": "Predicted citrulline change from placebo effect for dose of 1 mg", "setting": "[2]; Emax model", "result": 0.8535, "unit": "µg/mL"},
      {"measurement": "Predicted citrulline change from placebo effect for dose of 5 mg", "setting": "[2]; Emax model", "result": 2.2442, "unit": "µg/mL"},
      {"measurement": "Predicted citrulline change from placebo effect for dose of 10 mg", "setting": "[2]; Emax model", "result": 2.8182, "unit": "µg/mL"},
      {"measurement": "Predicted dose for citrulline change from placebo of 1 μg/mL", "setting": "[2]; Emax model", "result": 1.2333, "unit": "mg"},
      {"measurement": "Predicted dose for citrulline change from placebo of 2 μg/mL", "setting": "[2]; Emax model", "result": 3.8471, "unit": "mg"},
      {"measurement": "Predicted dose for citrulline change from placebo of 3 μg/mL", "setting": "[2]; Emax model", "result": 13.1053, "unit": "mg"},
      {"measurement": "Predicted citrulline change from placebo effect for dose of 1 mg", "setting": "[2]; Log-linear model", "result": 0.8712, "unit": "µg/mL"},
      {"measurement": "Predicted citrulline change from placebo effect for dose of 5 mg", "setting": "[2]; Log-linear model", "result": 2.1652, "unit": "µg/mL"},
      {"measurement": "Predicted citrulline change from placebo effect for dose of 10 mg", "setting": "[2]; Log-linear model", "result": 2.8604, "unit": "µg/mL"},
      {"measurement": "Predicted dose for citrulline change from placebo of 1 μg/mL", "setting": "[2]; Log-linear model", "result": 1.2249, "unit": "mg"},
      {"measurement": "Predicted dose for citrulline change from placebo of 2 μg/mL", "setting": "[2]; Log-linear model", "result": 4.2011, "unit": "mg"},
      {"measurement": "Predicted dose for citrulline change from placebo of 3 μg/mL", "setting": "[2]; Log-linear model", "result": 11.4325, "unit": "mg"},
      {"measurement": "Predicted citrulline change from placebo effect for dose of 1 mg", "setting": "[2]; Sigmoid Emax model", "result": 0.7125, "unit": "µg/mL"},
      {"measurement": "Predicted citrulline change from placebo effect for dose of 5 mg", "setting": "[2]; Sigmoid Emax model", "result": 2.3327, "unit": "µg/mL"},
      {"measurement": "Predicted citrulline change from placebo effect for dose of 10 mg", "setting": "[2]; Sigmoid Emax model", "result": 2.6946, "unit": "µg/mL"},
      {"measurement": "Predicted dose for citrulline change from placebo of 1 μg/mL", "setting": "[2]; Sigmoid Emax model", "result": 1.3606, "unit": "mg"},
      {"measurement": "Predicted dose for citrulline change from placebo of 2 μg/mL", "setting": "[2]; Sigmoid Emax model", "result": 3.4042, "unit": "mg"},
      {"measurement": "Predicted dose for citrulline change from placebo of 2.5 μg/mL", "setting": "[2]; Sigmoid Emax model", "result": 6.4619, "unit": "mg"},
      {"measurement": "MCP step, estimate of the difference", "setting": "[2]; candidate model Emax with ED50 = 5 mg", "result": 2.2150},
      {"measurement": "MCP step, estimate of the difference", "setting": "[2]; candidate model Linear", "result": 2.0781},
      {"measurement": "MCP step, estimate of the difference", "setting": "[2]; candidate model Log-linear", "result": 2.2125},
      {"measurement": "MCP step, estimate of the difference", "setting": "[2]; candidate model Sigmoid Emax with ED50 = 1 mg and H = 2", "result": 2.1663},
      {"measurement": "MCP step, estimate of the difference", "setting": "[2]; candidate model Sigmoid Emax with ED50 = 5 mg and H = 5", "result": 2.0713},
      {"measurement": "Deaths", "setting": "[3]", "result": "no deaths occurred"},
      {"measurement": "Quantifiable concentration in the last pharmacokinetic sample (2 weeks after last dose)", "setting": "[4]", "result": "up to 4.46 ng/mL"},
      {"measurement": "CL/F, arithmetic mean ± SD", "setting": "[4]; 5 mg", "result": 16.480, "unit": "L/day"},
      {"measurement": "CL/F, arithmetic mean ± SD", "setting": "[4]; 10 mg", "result": 20.747, "unit": "L/day"}
    ]}
  ]
}
